# Data taken from paper PMC7686039 (Bioorganic chemistry, 2020).
# “Also recorded” adds a separate entry of the source.
# Columns and labels:
# [1] = target: Recombinant full-length Sirt1 (human) (UniProt Q96EB6); assay: cross-linking
# recombinant Sirt1 = assay: inhibition/competition of p53 ABP labeling of recombinant Sirt1; format: binding, human
# Sirt1 = conditions: ref [17]; cited from earlier work
# [2] = system: Sirt1 (overexpressed) in HEK293T lysates; assay: p53 ABP labeling of Sirt1 in HEK293T lysates overexpressing Sirt1; format: binding; conditions: 500 μM inhibitor; 5 μM p53 ABP, 50 μg lysate, 500 μM NAD^+
# Sirt2 = conditions: cited from earlier work
# Chain of UniProt Q96EB6 (Q96EB6 whole entry): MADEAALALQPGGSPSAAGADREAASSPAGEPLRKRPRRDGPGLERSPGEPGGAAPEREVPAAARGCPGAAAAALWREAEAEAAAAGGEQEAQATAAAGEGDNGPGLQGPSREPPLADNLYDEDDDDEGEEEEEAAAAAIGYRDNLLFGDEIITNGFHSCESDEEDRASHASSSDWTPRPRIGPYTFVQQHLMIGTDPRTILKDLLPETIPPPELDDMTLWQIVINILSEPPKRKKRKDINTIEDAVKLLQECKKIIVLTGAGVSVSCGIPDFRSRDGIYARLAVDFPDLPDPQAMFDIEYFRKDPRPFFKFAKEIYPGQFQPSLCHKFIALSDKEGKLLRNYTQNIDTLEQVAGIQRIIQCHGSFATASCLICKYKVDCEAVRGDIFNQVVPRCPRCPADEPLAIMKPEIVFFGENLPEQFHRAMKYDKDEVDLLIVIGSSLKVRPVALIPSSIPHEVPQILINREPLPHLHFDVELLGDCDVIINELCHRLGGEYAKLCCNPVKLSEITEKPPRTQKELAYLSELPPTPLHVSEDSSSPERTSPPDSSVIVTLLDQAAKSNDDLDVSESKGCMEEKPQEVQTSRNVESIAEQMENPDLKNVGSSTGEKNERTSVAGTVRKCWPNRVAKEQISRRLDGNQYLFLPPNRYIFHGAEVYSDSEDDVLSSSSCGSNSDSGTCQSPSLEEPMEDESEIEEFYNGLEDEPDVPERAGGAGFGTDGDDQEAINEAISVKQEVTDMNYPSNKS
compound,measurement,setting,value
"8-mer thioacetyl-lysine p53 peptide, (diazirine)-RHKK(thioacetyl)LMF-(propargylglycine)-NH2",fold increase of labelling with NAD+ over without NAD+,[1],4 fold
"N[C@@H](CCC(=O)N[C@@H](CSN=O)C(=O)NCC(=O)O)C(=O)O [GSNO, S-nitrosoglutathione]","effect on p53 ABP labeling of recombinant Sirt1, GSNO pretreatment","recombinant Sirt1; 100 μM GSNO, presence and absence of 500 μM NAD^+",A dramatic loss of Sirt1 labeling
same,Sirt1 deacetylase activity upon S-nitrosation,Sirt1,complete loss of deacetylase activity
Cc1cc(C)nc(SCC(=O)Nc2ncc(Cc3cccc4ccccc34)s2)n1 [SirReal2],change of p53 ABP labeling of Sirt1,[2],no reduction in activity-based labeling of Sirt1; also recorded: a slight increase in activity-based labeling of Sirt1
same,Sirt2 selectivity of SirReal2,Sirt2; ref [48],Sirt2-selective
CCCCCCCCCCCCCC(=S)NCCCCC(NC(=O)OCc1ccccc1)C(=O)Nc1ccccc1 (centres unmarked) [TM],change of p53 ABP labeling of Sirt1,[2],no reduction in activity-based labeling of Sirt1
same,Sirt2 selectivity of TM,Sirt2; ref [22],Sirt2-selective
H2N-RHKK(trifluoroacetyl)LMF-NH2 [p53tfa],concentration needed to compete with p53 ABP labeling versus Kd,"recombinant Sirt1; 0.2–500 μM, competitor reversible, p53 ABP labeling covalent and irreversible",exceeds the Kd values
